Values joined by “and” are separate entries in the source; they are usually repeats but may differ in a detail not shown here. Equal entries are not always repeated. Inconclusive results and toxic doses are left out. Cut-off read from the data, not from the text of the source: active = T/C of 150% or more; inactive = T/C below 125%.
System: L1210 leukemia ip in BDF1 mice, survival T/C
Assay: NCI In Vivo Anticancer Drug Screen. Data for tumor model L1210 Leukemia (intraperitoneal) in B6D2F1 (BDF1) mice
Details: endpoint: mean survival time, higher = longer survival
In short: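 Ratio derived from survival: compound-dosed mice over vehicle-dosed mice, all bearing a transplantable tumor.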

[1] = dose: 100.0 mg/kg/injection, schedule: Q01DX009 (ip), vehicle: carboxymethylcellulose (CMC)
[2] = dose: 100.0 mg/kg/injection, schedule: Q04DX003 (ip), vehicle: carboxymethylcellulose (CMC)
[3] = dose: 200.0 mg/kg/injection, schedule: Q01DX009 (ip), vehicle: carboxymethylcellulose (CMC)
[4] = dose: 200.0 mg/kg/injection, schedule: Q04DX003 (ip), vehicle: carboxymethylcellulose (CMC)
[5] = dose: 100.0 mg/kg/injection, schedule: Q04DX003 (ip), vehicle: Klucel (hydroxypropylcellulose) (HPC)
[6] = dose: 200.0 mg/kg/injection, schedule: Q04DX003 (ip), vehicle: Klucel (hydroxypropylcellulose) (HPC)
[7] = dose: 100.0 mg/kg/injection, schedule: Q01DX009 (ip), vehicle: saline with Tween-80
[8] = dose: 200.0 mg/kg/injection, schedule: Q01DX009 (ip), vehicle: saline with Tween-80
[9] = dose: 50.0 mg/kg/injection, schedule: Q01DX009 (ip), vehicle: saline with Tween-80
[10] = dose: 100.0 mg/kg/injection, schedule: Q04DX003 (ip), vehicle: saline with Tween-80
[11] = dose: 200.0 mg/kg/injection, schedule: Q04DX003 (ip), vehicle: saline with Tween-80
[12] = dose: 400.0 mg/kg/injection, schedule: Q01DX009 (ip), vehicle: saline with Tween-80
[13] = dose: 100.0 mg/kg/injection, schedule: Q01DX009 (ip), vehicle: saline
[14] = dose: 100.0 mg/kg/injection, schedule: Q04DX003 (ip), vehicle: saline
[15] = dose: 200.0 mg/kg/injection, schedule: Q01DX009 (ip), vehicle: saline
[16] = dose: 200.0 mg/kg/injection, schedule: Q04DX003 (ip), vehicle: saline
[17] = dose: 400.0 mg/kg/injection, schedule: Q04DX003 (ip), vehicle: saline
[18] = dose: 100.0 mg/kg/injection, schedule: Q01DX009 (ip), vehicle: Klucel (hydroxypropylcellulose) (HPC)
[19] = dose: 200.0 mg/kg/injection, schedule: Q01DX009 (ip), vehicle: Klucel (hydroxypropylcellulose) (HPC)
[20] = dose: 400.0 mg/kg/injection, schedule: Q01DX009 (ip), vehicle: Klucel (hydroxypropylcellulose) (HPC)
[21] = dose: 400.0 mg/kg/injection, schedule: Q04DX003 (ip), vehicle: Klucel (hydroxypropylcellulose) (HPC)
[22] = dose: 100.0 mg/kg/injection, schedule: Q01DX001 (ip), vehicle: Klucel (hydroxypropylcellulose) (HPC)
[23] = dose: 200.0 mg/kg/injection, schedule: Q01DX001 (ip), vehicle: Klucel (hydroxypropylcellulose) (HPC)
[24] = dose: 400.0 mg/kg/injection, schedule: Q01DX001 (ip), vehicle: Klucel (hydroxypropylcellulose) (HPC)
[25] = dose: 100.0 mg/kg/injection, schedule: Q01DX001 (ip), vehicle: carboxymethylcellulose (CMC)
[26] = dose: 200.0 mg/kg/injection, schedule: Q01DX001 (ip), vehicle: carboxymethylcellulose (CMC)
[27] = dose: 100.0 mg/kg/injection, schedule: Q01DX001 (ip), vehicle: saline
[28] = dose: 200.0 mg/kg/injection, schedule: Q01DX001 (ip), vehicle: saline
[29] = dose: 400.0 mg/kg/injection, schedule: Q01DX001 (ip), vehicle: saline
[30] = dose: 400.0 mg/kg/injection, schedule: Q01DX009 (ip), vehicle: saline

Measured: T/C

O=C(O)CC1(C(=O)O)CC2CCC1C2 (stereo not drawn)
inactive: [1] 91 % of control | [2] 103 % of control | [3] 94 % of control | [4] 103 % of control | dose: 400.0 mg/kg/injection, schedule: Q01DX009 (ip), vehicle: carboxymethylcellulose (CMC) 92 % of control | dose: 400.0 mg/kg/injection, schedule: Q04DX003 (ip), vehicle: carboxymethylcellulose (CMC) 100 % of control

O=C1N(c2ccccc2)C(=O)N1c1ccccc1
inactive: [5] 93 % of control | [6] 96 % of control

Oc1ccc(C(O)(c2ccccc2)c2ccc(O)c3ccccc23)c2ccccc12
inactive: [7] 96 % of control | [8] 91 % of control

[B]N1C(C)=CC=CC1C (stereo not drawn)
inactive: [9] 92 % of control | [7] 92 % of control | [8] 89 % of control

CC1=CC=CC(=O)C1(C)C(Cl)Cl (stereo not drawn)
inactive: [7] 91 % of control | [10] 97 % of control | [8] 104 % of control | [11] 108 % of control | [12] 109 % of control | dose: 400.0 mg/kg/injection, schedule: Q04DX003 (ip), vehicle: saline with Tween-80 94 % of control

O=S(=O)(Nc1cc(Cl)c(NS(=O)(=O)c2ccccc2)c2ccccc12)c1ccccc1
inactive: dose: 75.0 mg/kg/injection, schedule: Q01DX001 (ip), vehicle: Klucel (hydroxypropylcellulose) (HPC) 92 % of control | dose: 75.0 mg/kg/injection, schedule: Q01DX009 (ip), vehicle: Klucel (hydroxypropylcellulose) (HPC) 92 % of control | dose: 150.0 mg/kg/injection, schedule: Q01DX001 (ip), vehicle: Klucel (hydroxypropylcellulose) (HPC) 101 % of control | dose: 150.0 mg/kg/injection, schedule: Q01DX009 (ip), vehicle: Klucel (hydroxypropylcellulose) (HPC) 94 % of control | dose: 300.0 mg/kg/injection, schedule: Q01DX001 (ip), vehicle: Klucel (hydroxypropylcellulose) (HPC) 95 % of control

C/C=C/C(=O)OC1CC2OC3C=C(C)C4OC4C3(C)C1(C)C21CO1 (stereo not drawn)
inactive: dose: 50.0 mg/kg/injection, schedule: Q01DX009 (ip), vehicle: saline 96 % of control | [13] 96 % of control | [14] 90 % of control | [15] 108 % of control | [16] 92 % of control | [17] 88 % of control

COC(=O)c1cc(Cl)ccc1OCC(=O)Nc1ccc([N+](=O)[O-])cc1
inactive: [18] 98 % of control | [5] 102 % of control | [19] 93 % of control | [6] 95 % of control | [20] 105 % of control | [21] 103 % of control

CSc1nc(C(=O)O)c(C)c(=O)[nH]1
inactive: dose: 100.0 mg/kg/injection, schedule: Q01DX Z (ip), vehicle: saline 109 % of control | dose: 200.0 mg/kg/injection, schedule: Q01DX Z (ip), vehicle: saline 100 % of control

COc1ccccc1/C=N/N=C(/N)N[N+](=O)[O-]
inactive: [22] 102 % of control | [23] 101 % of control | [24] 98 % of control

O=C(CCN1CCOCC1)c1csc2ccccc12
inactive: [25] 102 % of control | [26] 102 % of control | dose: 400.0 mg/kg/injection, schedule: Q01DX001 (ip), vehicle: carboxymethylcellulose (CMC) 96 % of control

CC(=O)Oc1c(C)c(Br)c(OC(C)=O)c(-c2c(C)cc(C)c(Br)c2C)c1Br
inactive: [22] 87 % of control | [5] 100 % of control | [23] 95 % of control | [6] 95 % of control | [24] 95 % of control | [21] 101 % of control

Nc1ccc(NS(=O)(=O)Cc2ccccc2)cc1
inactive: dose: 100.0 mg/kg/injection, schedule: Q01DX001 (ip), vehicle: saline with Tween-80 98 % of control | dose: 200.0 mg/kg/injection, schedule: Q01DX001 (ip), vehicle: saline with Tween-80 96 % of control | dose: 400.0 mg/kg/injection, schedule: Q01DX001 (ip), vehicle: saline with Tween-80 107 % of control

COc1ccc(N=CC2CCCCC2=O)c([N+](=O)[O-])c1 (stereo not drawn)
inactive: [27] 106 % of control | [28] 95 % of control | [29] 93 % of control

CC(=O)SCC(CSC(C)=O)c1nncc2ccccc12
inactive: [27] 95 % of control

CC(C)(C1c2ccccc2NC(=O)c2ccccc21)[N+](=O)[O-] (stereo not drawn)
inactive: [10] 101 % of control | [11] 94 % of control

NCC(c1ccccc1)C(Cc1ccccc1)[N+](=O)[O-] (stereo not drawn)
inactive: dose: 75.0 mg/kg/injection, schedule: Q01DX001 (ip), vehicle: other 115 % of control | dose: 150.0 mg/kg/injection, schedule: Q01DX001 (ip), vehicle: other 104 % of control

CCCCCCCCCCCCSC(=O)Nc1cc([N+](=O)[O-])ccc1C
inactive: [5] 92 % of control | [6] 88 % of control | [21] 88 % of control

CCCCCCCCCC(=O)N1CCCC(C)C1 (stereo not drawn)
inactive: dose: 50.0 mg/kg/injection, schedule: Q01DX001 (ip), vehicle: carboxymethylcellulose (CMC) 100 % of control | dose: 50.0 mg/kg/injection, schedule: Q01DX009 (ip), vehicle: carboxymethylcellulose (CMC) 94 % of control | dose: 50.0 mg/kg/injection, schedule: Q04DX003 (ip), vehicle: carboxymethylcellulose (CMC) 101 % of control | [25] 98 % of control | [1] 90 % of control and 91 % of control | dose: 100.0 mg/kg/injection, schedule: Q04DX002 (ip), vehicle: carboxymethylcellulose (CMC) 93 % of control and 95 % of control | [2] 95 % of control | [26] 94 % of control | [3] 89 % of control | dose: 200.0 mg/kg/injection, schedule: Q04DX002 (ip), vehicle: carboxymethylcellulose (CMC) 101 % of control and 103 % of control | [4] 97 % of control | dose: 400.0 mg/kg/injection, schedule: Q04DX002 (ip), vehicle: carboxymethylcellulose (CMC) 92 % of control

Nc1cccc2c1C(=O)c1ccccc1-2
inactive: [7] 97 % of control | [8] 103 % of control | [12] 97 % of control

CCCCNC(=O)Nc1ccccc1C(N)=O
inactive: [18] 97 % of control | [5] 98 % of control | [19] 95 % of control | [6] 94 % of control | [20] 105 % of control | [21] 96 % of control

CSc1nc(Cl)c(Br)c(N2CC2)n1
inactive: dose: 100.0 mg/kg/injection, schedule: Q01DX Z (ip), vehicle: methylcellulose (MC) 110 % of control | dose: 200.0 mg/kg/injection, schedule: Q01DX Z (ip), vehicle: methylcellulose (MC) 108 % of control

CS(=O)(=O)c1nc2[nH]c(=O)[nH]c(=O)c2cc1C#N
inactive: dose: 25.0 mg/kg/injection, schedule: Q01DX001 (ip), vehicle: Klucel (hydroxypropylcellulose) (HPC) 93 % of control | dose: 50.0 mg/kg/injection, schedule: Q01DX001 (ip), vehicle: Klucel (hydroxypropylcellulose) (HPC) 98 % of control | [22] 97 % of control

CCN(CC)C(=O)Cn1ccc(N)nc1=O
inactive: [13] 115 % of control | [14] 100 % of control | [15] 98 % of control | [16] 100 % of control | [30] 97 % of control | [17] 102 % of control

CN1CN(c2ccccc2)C2(CCN(Cc3ccccc3)CC2)C1=O
inactive: [27] 101 % of control | [28] 101 % of control | [29] 103 % of control

Cn1ncc2c(NCc3ccccc3)ncnc21
inactive: [27] 97 % of control | [28] 110 % of control

C(=C\c1ccc2ccccc2n1)/c1ccccc1
inactive: [9] 119 % of control | [27] 103 % of control | [7] 94 % of control | [28] 106 % of control | [8] 109 % of control | [29] 109 % of control

CC(C)Oc1ccc(C(=O)NS(=O)(=O)c2ccc(N)cc2)cc1
inactive: [27] 101 % of control | [13] 91 % of control | [28] 101 % of control | [15] 103 % of control | [29] 100 % of control | [30] 100 % of control
